{"source": "patent US20120071628A1", "about": "“TOPICAL THERAPEUTIC AGENT FOR OPHTHALMIC DISEASES COMPRISING COMPOUND CAPABLE OF BINDING SPECIFICALLY TO DNA SEQUENCE” (NIHON UNIVERSITY, priority 2009, published 2012)", "key": {"[1]": {"test_system": "nucleus of cells in the cornea", "experiment": "Distribution of FITC-labeled polyamide in the cornea of alkali injury model rats", "format": "in vivo, rat", "details": "1 hour after administration, 1 μmol/L, 5 μl instilled", "procedure": "The synthesized FITC polyamide was dissolved in 0.1% acetic acid solution, the concentration was adjusted to 1 μmol/L, 5 μl of the solution was dropped on the central part of the cornea of 8 alkali injury model rats at 1 hour after induction of a trauma. Two animals each were euthanized at 1 hour and on 1, 4, and 7 days after instillation of the FITC polyamide. The eyeball was isolated, embedded in the OCT compound (Miles, Elkhart, Ind., USA) in a plastic container for a frozen section sample, frozen with liquid nitrogen, and stored in an ultra-low temperature refrigerator at −80° C. The sample was thinly sliced into a section of 5 μm and observed under a fluorescence microscope (Olympus Corporation)."}, "rTGF-β1 promoter": {"test_system": "rTGF-β1 promoter", "experiment": "Luciferase reporter plasmid assay of rTGF-β1 promoter expression induced by PMA", "format": "cell-based, rat", "details": "luciferase reporter plasmid with rTGF-β1 promoter region", "text": "The reporter gene expression induced by adding PMA was inhibited by adding GBP1201 and GBP1203 but not by the mismatch polyamide."}, "[2]": {"test_system": "biotin-labeled double-stranded oligo DNA (target DNA, rat TGF-β1 promoter)", "experiment": "Biacore assay of binding affinity for target DNA", "details": "surface plasmon resonance", "text": "Biacore assay can measure binding affinity of rTGF-β (GBP1201) PIP for a target DNA in real time.\nBiotin-labeled oligo DNA were annealed to form a double strand, and the double strand was immobilized on a sensor chip SA (Biacore, Uppsala, Sweden) on which streptavidin was immobilized beforehand.\nDynamics of interactions of rTGF-β (GBP1201) PIP, mismatch (FIG. 41 [a]) and biotin-labeled oligo DNA were investigated using Biacore 2000 System (Biacore, Uppsala, Sweden). Data was processed according to the protocol recommended by Biacore2000."}, "[3]": {"test_system": "double-stranded oligo DNA containing the AP-1 binding site that corresponds to the TGF-β1 promoter", "experiment": "Gel shift assay of PIP binding to target DNA", "set-up": "species or system rat", "procedure": "For the gel shift assay, a fluorescence-labeled match oligo DNA containing the AP-1 binding site that corresponds to the TGF-β1 promoter was synthesized. Sense and antisense oligo DNA suitable for the test were annealed to prepare a double-stranded oligo DNA. 1 μM DNA was incubated with 50 μM PIP compound at 37° C. for 1 hour, separated by electrophoresis using 20% polyacrylamide gel, and visualized using a fluorescence image analyzer LAS-3000 (Fuji Film, Tokyo, Japan)."}, "TGF-β1 protein": {"test_system": "TGF-β1 protein", "experiment": "Immunohistochemistry test of rat eyes after corneal injury", "format": "in vivo", "details": "day 1 after alkali injury", "procedure": "At 1 hour and on 1, 4, and 7 days after induction of a corneal injury in rats, the eyeball was isolated and embedded in the OCT compound (Miles, Elkhart, Ind., USA.). The frozen section was sliced into sections having a thickness of 5 μm, and histological and immunohistological analyses were performed. Using rabbit-anti-human Tgf-β1 polyclonal antibody (Yanaihira, Japan, catalog No. Y241) as a primary antibody, the sample was diluted 1000-fold before use. 4 nontrauma corneas as normal controls were used to compare rTGF-β (GBP1201) PIP-treated eyes and mock-treated eyes. To determine the specificity of the primary antibody, a negative control was also included."}, "[4]": {"test_system": "alkali burn rat model (cornea)", "experiment": "Corneal opacity, ulceration and corneal defect in rats with alkali burn", "format": "in vivo", "details": "1 μmol/L, 5 μl instilled once daily for 1 week, versus 0.1% aqueous acetic acid control", "procedure": "8-week-old male Wister rats were prepared and anesthetized with diethyl ether. Then, 5 μl of 0.5 N sodium hydroxide solution was administered […] to adult Wister rats by instilling the central part of the cornea of both eyes or one eye by a common method according to Saika et al. (Am J. Patho., 2005). At 10 seconds after instillation, the alkali liquid was washed off from the cornea surface with 10 ml of phosphate buffer to prepare an alkali burn rat model.\nAt 1 hour after a trauma due an alkali burn was induced (9.00 am), and 1 μmol/L rTGF-β (GBP1201) PIP compound and 1 μmol/L of a mixture of rMMP9AP1 and rMMP9NFkB in 1:1 (hereinafter, also referred to as rMMP9PIP) dissolved in 5 μl of 0.1% acetic acid hydrate were administered to the rat right eye by dropping in the central part of the cornea at 9.00 am once daily every day for 1 week. As a control, 0.1% aqueous acetic acid solution was administered to the left eye in the same manner as described above. The same experiment was performed in 6 rats. The reason why 0.1% aqueous acetic acid solution was used was that the PIP compound of the present invention was dissolved in this aqueous solution. Furthermore, to prevent the occurrence of an infection, antibiotic eye ointment Tarivid Ophthalmic Ointment 0.3% (Santen Pharmaceutical Co., Ltd.) was administered at 5.00 pm every day. Furthermore, the drug was administered to 2 rats in which an alkali burn was not induced as controls. Rats were observed every day at the time of instillation and application of an eye ointment, and the cornea was observed and photographed every evening. […] By utilizing this property, the corneal injury was evaluated according to the cornea fluorescein test using a FLUORES test paper (Showa Yakuhin Kako Co., Ltd.) that can test the corneal condition.\nThe cornea was observed until complete reepithelialization was observed. When the fluorescence staining of the cornea was not observed, complete reepithelialization was defined.\nTransparency of the cornea was evaluated as follows. […]"}}}
{"smiles": "CN(C)CCCNC(=O)CCNC(=O)c1nc(NC(=O)c2nc(NC(=O)CCNC(=O)c3cc(NC(=O)c4cc(NC(=O)c5nc(NC(=O)CCCNC(=O)c6cc(NC(=O)c7cc(NC(=O)c8nc(NC(=O)CCNC(=O)c9cc(NC(=O)c%10cc(NC(=O)CCNC(=S)Nc%11ccc%12c(c%11)C(=O)OC%12%11c%12ccc(O)cc%12Oc%12cc(O)ccc%12%11)cn%10C)cn9C)cn8C)cn7C)cn6C)cn5C)cn4C)cn3C)cn2C)cn1C", "note": "[rTGF-β (GBP1201) FITC]", "values": [{"measurement": "FITC fluorescence in the cornea", "setting": "[1]", "result": "green FITC fluorescence is observed in the corneal epithelium and in the nucleus of interstitial cells in the cornea"}]}
{"smiles": "CC(=O)Nc1cc(C(=O)Nc2cc(C(=O)NCCC(=O)Nc3cn(C)c(C(=O)Nc4cc(C(=O)Nc5cc(C(=O)NCCCC(=O)Nc6cn(C)c(C(=O)Nc7cc(C(=O)Nc8cc(C(=O)NCCC(=O)Nc9cn(C)c(C(=O)Nc%10cn(C)c(C(=O)NCCC(=O)NCCCN(C)C)n%10)n9)n(C)c8)n(C)c7)n6)n(C)c5)n(C)c4)n3)n(C)c2)n(C)c1", "note": "[rTGF-β (GBP1201)]", "values": [{"measurement": "reporter gene expression induced by adding PMA", "setting": "rTGF-β1 promoter", "result": "inhibited"}, {"measurement": "binding affinity for target DNA relative to the mismatch polyamide", "setting": "[2]", "result": 149, "unit": "times"}, {"measurement": "Kd", "setting": "[2]; target DNA, 0-300 nM", "result": 5.12, "unit": "nM"}, {"measurement": "binding to the target DNA (gel shift)", "setting": "[3]; 1 μM DNA, 50 μM PIP compound, 37° C., 1 hour", "result": "bound specifically to the target DNA"}, {"measurement": "binding to the mismatch polyamide (gel shift (so in the source))", "setting": "[3]; gel shift assay", "result": "did not bind to the mismatch polyamide"}, {"measurement": "TGF-β1 immunohistology versus controls", "setting": "TGF-β1 protein", "result": "No immunohistological difference"}, {"measurement": "healing of corneal opacity and ulceration", "setting": "[4]", "result": "significantly better than the control"}, {"measurement": "healing of corneal defect (severity of corneal defect)", "setting": "[4]; listed as TGF-β (GBP1201) PIP", "result": "significantly earlier (approximately twice as fast) than the control"}, {"measurement": "healing of corneal defect (severity of corneal defect)", "setting": "[4]; listed as rTGF-β (GBP1201) PIP compound", "result": "significantly better than the control"}]}
